Source: ChEMBL document CHEMBL5537158, “Polymyxins with Potent Antibacterial Activity against Colistin-Resistant Pathogens: Fine-Tuning Hydrophobicity with Unnatural Amino Acids” (J Med Chem, 2024)
Values after ≈ are worked out from the molar mass of the structure shown. Active and inactive are the calls of the source. No cut-off for these calls is given here. Positions of bridges follow the written chain, without caps; N, C: chain ends. Non-standard residues stand in square brackets, D forms with d. Residues, ends and D or L forms follow the SMILES beside them. *: point of attachment. Benzoyl(4-Ph) = O=C(c1ccc(-c2ccccc2)cc1)*; Dab = NCC[C@H](N)C(=O)O

What was measured:
[1] = tested on: Cell membrane; assay: Induction of membrane destabilization in Escherichia coli MG1655 assessed as SYTOX uptake at 2 times MIC measured every 5 mins for 120 mins by microplate reader assay; format: cell membranes
[2] = tested on: Escherichia coli; assay: Antimicrobial activity against […] Escherichia coli harboring mcr-1 assessed as bacterial growth inhibition incubated for 20 hrs by broth microdilution method; format: functional
[3] = tested on: Pseudomonas aeruginosa; assay: Potency index, ratio of polymyxin B MIC to test compound MIC for antibacterial activity against colistin resistant Pseudomonas aeruginosa clinical isolate 1; format: functional
[4] = tested on: Klebsiella pneumoniae; assay: Antimicrobial activity against colistin resistant Klebsiella pneumoniae clinical isolate 5 assessed as bacterial growth inhibition incubated for 20 hrs by broth microdilution method; format: functional
[5] = tested on: Acinetobacter baumannii; assay: Antimicrobial activity against colistin resistant Acinetobacter baumannii clinical isolate 2 assessed as bacterial growth inhibition incubated for 20 hrs by broth microdilution method; format: functional
[6] = tested on: Escherichia coli; assay: Antibacterial activity against […] Escherichia coli clinical isolate 3 assessed as bacterial growth inhibition incubated for 20 hrs by broth microdilution method; format: functional
[7] = tested on: Acinetobacter baumannii; assay: Antimicrobial activity against colistin resistant Acinetobacter baumannii ATCC 19606 assessed as bacterial growth inhibition incubated for 20 hrs by broth microdilution method; format: functional
[8] = tested on: Klebsiella pneumoniae; assay: Antimicrobial activity against Klebsiella pneumoniae ATCC 13883 assessed as bacterial growth inhibition incubated for 20 hrs by broth microdilution method; format: functional
[9] = tested on: Klebsiella pneumoniae; assay: Antimicrobial activity against colistin resistant Klebsiella pneumoniae ATCC 13883 assessed as bacterial growth inhibition incubated for 20 hrs by broth microdilution method; format: functional
[10] = tested on: Acinetobacter baumannii; assay: Antimicrobial activity against colistin resistant Acinetobacter baumannii ATCC 3658/17 assessed as bacterial growth inhibition incubated for 20 hrs by broth microdilution method; format: functional
[11] = tested on: Pseudomonas aeruginosa; assay: Potency index, ratio of colistin MIC to test compound MIC for antibacterial activity against colistin resistant Pseudomonas aeruginosa clinical isolate 1; format: functional
[12] = tested on: Klebsiella pneumoniae; assay: Antimicrobial activity against colistin resistant Klebsiella pneumoniae clinical isolate 2 assessed as bacterial growth inhibition incubated for 20 hrs by broth microdilution method; format: functional
[13] = tested on: Acinetobacter baumannii; assay: Antimicrobial activity against Acinetobacter baumannii ATCC 19606 assessed as bacterial growth inhibition incubated for 20 hrs by broth microdilution method; format: functional
[14] = tested on: Pseudomonas aeruginosa; assay: Antimicrobial activity against colistin resistant Pseudomonas aeruginosa clinical isolate 1 assessed as bacterial growth inhibition incubated for 20 hrs by broth microdilution method; format: functional
[15] = tested on: Pseudomonas aeruginosa; assay: Antimicrobial activity against Pseudomonas aeruginosa ATCC 27853 assessed as bacterial growth inhibition incubated for 20 hrs by broth microdilution method; format: functional
[16] = tested on: Pseudomonas aeruginosa; assay: Antimicrobial activity against Pseudomonas aeruginosa PAO1 assessed as bacterial growth inhibition incubated for 20 hrs by broth microdilution method; format: functional
[17] = tested on: Klebsiella pneumoniae; assay: Antimicrobial activity against colistin resistant Klebsiella pneumoniae clinical isolate 1 assessed as bacterial growth inhibition incubated for 20 hrs by broth microdilution method; format: functional
[18] = tested on: Klebsiella pneumoniae; assay: Antimicrobial activity against colistin resistant Klebsiella pneumoniae clinical isolate 3 assessed as bacterial growth inhibition incubated for 20 hrs by broth microdilution method; format: functional
[19] = tested on: Escherichia coli; assay: Potency index, ratio of colistin MIC to test compound MIC for antibacterial activity against Escherichia coli harboring mcr-1; format: functional
[20] = tested on: Escherichia coli; assay: Antibacterial activity against Escherichia coli ATCC 25922 assessed as bacterial growth inhibition incubated for 20 hrs by broth microdilution method; format: functional
[21] = tested on: Escherichia coli; assay: Antibacterial activity against […] Escherichia coli clinical isolate 2 assessed as bacterial growth inhibition incubated for 20 hrs by broth microdilution method; format: functional
[22] = tested on: Escherichia coli; assay: Antibacterial activity against […] Escherichia coli ATCC 25922 assessed as bacterial growth inhibition incubated for 20 hrs by broth microdilution method; format: functional
[23] = tested on: Escherichia coli; assay: Antibacterial activity against […] Escherichia coli clinical isolate 1 assessed as bacterial growth inhibition incubated for 20 hrs by broth microdilution method; format: functional
[24] = tested on: Klebsiella pneumoniae; assay: Antimicrobial activity against colistin resistant Klebsiella pneumoniae clinical isolate 4 assessed as bacterial growth inhibition incubated for 20 hrs by broth microdilution method; format: functional
[25] = tested on: Acinetobacter baumannii; assay: Antimicrobial activity against colistin resistant Acinetobacter baumannii clinical isolate 1 assessed as bacterial growth inhibition incubated for 20 hrs by broth microdilution method; format: functional
[26] = tested on: Acinetobacter baumannii; assay: Antimicrobial activity against colistin resistant Acinetobacter baumannii clinical isolate 4 assessed as bacterial growth inhibition incubated for 20 hrs by broth microdilution method; format: functional
[27] = tested on: Acinetobacter baumannii; assay: Antimicrobial activity against colistin resistant Acinetobacter baumannii clinical isolate 3 assessed as bacterial growth inhibition incubated for 20 hrs by broth microdilution method; format: functional
[28] = tested on: Pseudomonas aeruginosa; assay: Antimicrobial activity against colistin resistant Pseudomonas aeruginosa 7197/19 assessed as bacterial growth inhibition incubated for 20 hrs by broth microdilution method; format: functional
[29] = tested on: Erythrocyte; assay: Hemolytic activity in human RBC at 400 ug/ml after 1 hr; format: toxicity, cell-based; conditions: erythrocyte, 1 h, at 400 µg/mL
[30] = tested on: HepG2; assay: Cytotoxicity against human HepG2 cells incubated for 48 hrs by MTT assay; format: toxicity, cell-based
[31] = tested on: Escherichia coli; assay: Potency index, ratio of colistin MIC to test compound MIC for antibacterial activity against […] Escherichia coli; format: functional
[32] = tested on: Klebsiella pneumoniae; assay: Antimicrobial activity against colistin resistant Klebsiella pneumoniae clinical isolate 6 assessed as bacterial growth inhibition incubated for 20 hrs by broth microdilution method; format: functional

| Compound | Activity [1] | MIC [2] | Ratio [3] | MIC [4] | MIC [5] | MIC [6] | MIC [7] | MIC [8] | MIC [9] | MIC [10] | Ratio [11] | MIC [12] | MIC [13] | MIC [14] | MIC [15] | MIC [16] | MIC [17] | MIC [18] | MIC [21] | MIC [27] | other results |
| --- | --- | --- | --- | --- | --- | --- | --- | --- | --- | --- | --- | --- | --- | --- | --- | --- | --- | --- | --- | --- | --- |
| CCCCCCCC(=O)N[C@@H](CCN)C(=O)N[C@H](C(=O)N[C@@H](CCN)C(=O)N[C@H]1CCNC(=O)[C@H]([C@@H](C)O)NC(=O)[C@H](CCN)NC(=O)[C@H](CCN)NC(=O)C(CCCc2ccccc2)NC(=O)[C@@H](Cc2ccccc2)NC(=O)[C@@H](CCN)NC1=O)[C@H](C)O (stereo partly specified) | Active |  |  |  |  |  |  |  |  |  |  |  |  |  |  |  |  |  |  |  |  |
| CCCCCCCC(=O)N[C@@H](CCN)C(=O)N[C@H](C(=O)N[C@@H](CCN)C(=O)N[C@H]1CCNC(=O)[C@H]([C@@H](C)O)NC(=O)[C@H](CCN)NC(=O)[C@H](CCN)NC(=O)[C@H](CC(C)C)NC(=O)[C@@H](Cc2ccc(Br)cc2)NC(=O)[C@@H](CCN)NC1=O)[C@H](C)O | Active |  |  |  |  |  |  |  |  |  |  |  |  |  |  |  |  |  |  |  |  |
| CCCCCCCC(=O)N[C@@H](CCN)C(=O)N[C@H](C(=O)N[C@@H](CCN)C(=O)N[C@H]1CCNC(=O)[C@H]([C@@H](C)O)NC(=O)[C@H](CCN)NC(=O)[C@H](CCN)NC(=O)[C@H](CCCCCC)NC(=O)[C@@H](Cc2ccccc2)NC(=O)[C@H](CCN)NC1=O)[C@@H](C)O |  | 0.5 µg/mL (≈ 0.411 µM) | 2 | 16 µg/mL (≈ 13.1 µM) | 16 µg/mL (≈ 13.1 µM) | 1 µg/mL (≈ 0.821 µM) | 0.25 µg/mL (≈ 0.205 µM) | < 0.123 µg/mL | 8 µg/mL (≈ 6.57 µM) | 0.25 µg/mL (≈ 0.205 µM) | 2 | 8 µg/mL (≈ 6.57 µM) | 0.125 µg/mL (≈ 0.103 µM) | 2 µg/mL (≈ 1.64 µM) | 0.25 µg/mL (≈ 0.205 µM) | < 0.125 µg/mL | 16 µg/mL (≈ 13.1 µM) | 4 µg/mL (≈ 3.29 µM) | 1 µg/mL (≈ 0.821 µM) |  | Ratio [19]: 4; MIC [20]: < 0.125 µg/mL |
| CCCCCCCC(=O)N[C@@H](CCN)C(=O)N[C@H](C(=O)N[C@@H](CCN)C(=O)N[C@H]1CCNC(=O)[C@H]([C@@H](C)O)NC(=O)[C@H](CCN)NC(=O)[C@H](CCN)NC(=O)C(CCCCCC)NC(=O)[C@@H](Cc2ccccc2)NC(=O)[C@@H](CCN)NC1=O)[C@H](C)O (stereo partly specified) | Active |  |  |  |  |  |  |  |  |  |  |  |  |  |  |  |  |  |  |  |  |
| CCCCCCCC(=O)N[C@@H](CCN)C(=O)N[C@H](C(=O)N[C@@H](CCN)C(=O)N[C@H]1CCNC(=O)[C@H]([C@@H](C)O)NC(=O)[C@H](CCN)NC(=O)[C@H](CCN)NC(=O)[C@H](CC(C)C)NC(=O)[C@@H](Cc2ccc(Br)cc2)NC(=O)[C@H](CCN)NC1=O)[C@@H](C)O |  | 1 µg/mL (≈ 0.788 µM) | 2 |  |  | 2 µg/mL (≈ 1.58 µM) |  | 0.125 µg/mL (≈ 0.0986 µM) | 16 µg/mL (≈ 12.6 µM) |  |  |  |  | 2 µg/mL (≈ 1.58 µM) |  | 0.125 µg/mL (≈ 0.0986 µM) | 16 µg/mL (≈ 12.6 µM) |  | 2 µg/mL (≈ 1.58 µM) | 2 µg/mL (≈ 1.58 µM) | MIC [22]: 0.125 µg/mL (≈ 0.0986 µM); MIC [23]: 2 µg/mL (≈ 1.58 µM); MIC [24]: 16 µg/mL (≈ 12.6 µM); MIC [25]: 8 µg/mL (≈ 6.31 µM); MIC [26]: 2 µg/mL (≈ 1.58 µM); MIC [28]: 0.125 µg/mL (≈ 0.0986 µM); MIC [20]: < 0.125 µg/mL |
| POLYMYXIN B [listing 1 of 2 here] |  |  |  |  |  |  |  |  |  |  |  |  |  |  |  |  |  |  |  |  | Activity [29]: < 10%; IC50 [30]: > 1280 µg/mL |
| CCCCCCCC(=O)N[C@@H](CCN)C(=O)N[C@H](C(=O)N[C@@H](CCN)C(=O)N[C@H]1CCNC(=O)[C@H]([C@@H](C)O)NC(=O)[C@H](CCN)NC(=O)[C@H](CCN)NC(=O)[C@H](CCCc2ccccc2)NC(=O)[C@@H](Cc2ccccc2)NC(=O)[C@H](CCN)NC1=O)[C@@H](C)O |  | 0.5 µg/mL (≈ 0.4 µM) |  |  | 0.5 µg/mL (≈ 0.4 µM) | 1 µg/mL (≈ 0.799 µM) |  | < 0.125 µg/mL |  | < 0.125 µg/mL | 2 | 4 µg/mL (≈ 3.2 µM) | 0.125 µg/mL (≈ 0.0999 µM) | 2 µg/mL (≈ 1.6 µM) | 0.125 µg/mL (≈ 0.0999 µM) | < 0.125 µg/mL | 8 µg/mL (≈ 6.39 µM) | 2 µg/mL (≈ 1.6 µM) | 1 µg/mL (≈ 0.799 µM) | 1 µg/mL (≈ 0.799 µM) | MIC [25]: 2 µg/mL (≈ 1.6 µM); MIC [26]: 2 µg/mL (≈ 1.6 µM); Ratio [31]: 4; Ratio [19]: 4 |
| CC[C@H](C)[C@@H]1NC(=O)[C@@H](CC(C)C)NC(=O)[C@H](CCN)NC(=O)[C@@H](NC(=O)[C@@H](CO)NC(=O)[C@@H](NC(=O)[C@H](CCN)NC(=O)c2ccc(-c3ccccc3)cc2)[C@@H](C)O)CCNC(=O)[C@H](CC(C)C)NC(=O)[C@H](CCN)NC(=O)[C@H](CCN)NC1=O ({Benzoyl(4-Ph)}-[Dab]T[dS][Dab][Dab][dL]I[Dab][Dab]L; lactam 4-C) |  | 4 µg/mL (≈ 3.31 µM) | 2 | 1 µg/mL (≈ 0.827 µM) |  | 2 µg/mL (≈ 1.65 µM) | 0.5 µg/mL (≈ 0.414 µM) | 2 µg/mL (≈ 1.65 µM) | 2 µg/mL (≈ 1.65 µM) | 1 µg/mL (≈ 0.827 µM) | 2 | 1 µg/mL (≈ 0.827 µM) |  | 2 µg/mL (≈ 1.65 µM) | 0.5 µg/mL (≈ 0.414 µM) |  | 1 µg/mL (≈ 0.827 µM) | 2 µg/mL (≈ 1.65 µM) | 4 µg/mL (≈ 3.31 µM) | 4 µg/mL (≈ 3.31 µM) | MIC [22]: 2 µg/mL (≈ 1.65 µM); MIC [23]: 4 µg/mL (≈ 3.31 µM); MIC [32]: 0.5 µg/mL (≈ 0.414 µM); MIC [28]: 1 µg/mL (≈ 0.827 µM) |
| POLYMYXIN B [listing 2 of 2 here] |  | 2 µg/mL |  | > 16 µg/mL | > 16 µg/mL | 4 µg/mL | 0.125 µg/mL | 0.5 µg/mL | 16 µg/mL | 8 µg/mL |  | 8 µg/mL | 0.25 µg/mL | 4 µg/mL | 0.25 µg/mL | 0.25 µg/mL | > 16 µg/mL | 4 µg/mL | 2 µg/mL | 8 µg/mL | MIC [22]: 0.125 µg/mL; MIC [23]: 2 µg/mL; MIC [24]: 16 µg/mL; MIC [25]: > 16 µg/mL; MIC [32]: 16 µg/mL; MIC [26]: 16 µg/mL; MIC [28]: 8 µg/mL; MIC [20]: 0.25 µg/mL |
